Here are results for 21 molecules from patent US8269026B2, “Lupane derivatives useful for treating HIV” (priority 2008, dated 2012).

Broadly, the IC50 is the midpoint of a concentration-inhibition curve.

In this assay the test system is HIV-1 (HIVIIIB) replication in MT2 cell line. The experiment in a line: HIV-1 replication in MT2 cell line with and without 30% human serum (viral RT activity in supernatant). It counts as cell-based. The settings on record: Human immunodeficiency virus 1, MT2 cells, with 30% human serum, average IC50 if tested more than once, read-out: MT2 (HIVIIIB) with HS 30% IC50 range. The method, boiled down: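 Read-out is supernatant reverse transcriptase activity on day 5 post-infection, giving IC50 and IC90. Compounds were titrated in complete medium ± 30% human serum, re-dosed after 3 days, on MT2 cells exposed for 3 h to HIVIIIB at MOI 0.5 then washed.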
Regarding `CC(C)C1=C2[C@H]3CC[C@@H]4[C@@]5(C)CC[C@H](OC(=O)CC(C)(C)C(=O)O)C(C)(C)[C@@H]5CC[C@@]4(C)[C@]3(C)CC[C@@]2(NC(=O)[C@@H]2CCCN2C)CC1=O` [19-42], the IC50 was under 0.199 µM.

Turning to `Cc1ccc(C(=O)N[C@@]23CC[C@]4(C)[C@H](CC[C@@H]5[C@@]6(C)CC[C@H](OC(=O)CC(C)(C)C(=O)O)C(C)(C)[C@@H]6CC[C@]54C)C2=C(C(C)C)C(=O)C3)cc1` [19-43, 3β-O-(3′,3′-Dimethylsuccinyl)-17β-(4-methylbenzamido)-21-oxolup-18-ene], the IC50 is under 0.199 µM.

For `Cc1cccc(C(=O)N[C@@]23CC[C@]4(C)[C@H](CC[C@@H]5[C@@]6(C)CC[C@H](OC(=O)CC(C)(C)C(=O)O)C(C)(C)[C@@H]6CC[C@]54C)C2=C(C(C)C)C(=O)C3)c1` [19-44, 3β-O-(3′,3′-Dimethylsuccinyl)-17β-(3-methylbenzamido)-21-oxolup-18-ene], the IC50 is under 0.199 µM.

Consider `Cc1ccccc1C(=O)N[C@@]12CC[C@]3(C)[C@H](CC[C@@H]4[C@@]5(C)CC[C@H](OC(=O)CC(C)(C)C(=O)O)C(C)(C)[C@@H]5CC[C@]43C)C1=C(C(C)C)C(=O)C2` [19-45, 3β-O-(3′,3′-Dimethylsuccinyl)-17β-(2-methylbenzamido)-21-oxolup-18-ene], for which the IC50 is under 0.199 µM.

On to `Cc1ncccc1C(=O)N[C@@]12CC[C@]3(C)[C@H](CC[C@@H]4[C@@]5(C)CC[C@H](OC(=O)CC(C)(C)C(=O)O)C(C)(C)[C@@H]5CC[C@]43C)C1=C(C(C)C)C(=O)C2` [19-46, 3β-O-(3′,3′-Dimethylsuccinyl)-17β-(2-methylpyridin-3-yl)amido-21-oxolup-18-ene], for which the IC50 is under 0.199 µM.

In the case of `Cc1cncc(C(=O)N[C@@]23CC[C@]4(C)[C@H](CC[C@@H]5[C@@]6(C)CC[C@H](OC(=O)CC(C)(C)C(=O)O)C(C)(C)[C@@H]6CC[C@]54C)C2=C(C(C)C)C(=O)C3)c1` [19-47, 3β-O-(3′,3′-Dimethylsuccinyl)-17β-(5-methylpyridin-3-yl)amido-21-oxolup-18-ene], the IC50 is under 0.199 µM.

As to `Cc1ccc(C(=O)N[C@@]23CC[C@]4(C)[C@H](CC[C@@H]5[C@@]6(C)CC[C@H](OC(=O)CC(C)(C)C(=O)O)C(C)(C)[C@@H]6CC[C@]54C)C2=C(C(C)C)C(=O)C3)cn1` [19-48, 3β-O-(3′,3′-Dimethylsuccinyl)-17β-(6-methylpyridin-3-yl)amido-21-oxolup-18-ene], the IC50 was under 0.199 µM.

As to `Cc1ccncc1C(=O)N[C@@]12CC[C@]3(C)[C@H](CC[C@@H]4[C@@]5(C)CC[C@H](OC(=O)CC(C)(C)C(=O)O)C(C)(C)[C@@H]5CC[C@]43C)C1=C(C(C)C)C(=O)C2` [19-49, 3β-O-(3′,3′-Dimethylsuccinyl)-17β-(4-methylpyridin-3-yl)amido-21-oxolup-18-ene], the IC50 was under 0.199 µM.

For `CC(C)C1=C2[C@H]3CC[C@@H]4[C@@]5(C)CC[C@H](OC(=O)CC(C)(C)C(=O)O)C(C)(C)[C@@H]5CC[C@@]4(C)[C@]3(C)CC[C@@]2(NC(=O)c2cnccc2O)CC1=O` [19-50, 3β-O-(3′,3′-Dimethylsuccinyl)-17β-(4-hydroxypyridine-3-yl)amido-21-oxolup-18-ene], the IC50 was under 0.199 µM.

Take `CC(C)C1=C2[C@H]3CC[C@@H]4[C@@]5(C)CC[C@H](OC(=O)CC(C)(C)C(=O)O)C(C)(C)[C@@H]5CC[C@@]4(C)[C@]3(C)CC[C@@]2(NC(=O)c2cccnc2O)CC1=O` [19-51, 3β-O-(3′,3′-Dimethylsuccinyl)-17β-(2-hydroxypyridin-3-yl)amido-21-oxolup-18-ene]: the IC50 is under 0.199 µM.

With `Cc1cc(C(=O)N[C@@]23CC[C@]4(C)[C@H](CC[C@@H]5[C@@]6(C)CC[C@H](OC(=O)CC(C)(C)C(=O)O)C(C)(C)[C@@H]6CC[C@]54C)C2=C(C(C)C)C(=O)C3)ccn1` [19-52, 3β-O-(3′,3′-Dimethylsuccinyl)-17β-(2-methylpyridin-4-yl)amido-21-oxolup-18-ene], the IC50 is under 0.199 µM.

`CC(C)C1=C2[C@H]3CC[C@@H]4[C@@]5(C)CC[C@H](OC(=O)CC(C)(C)C(=O)O)C(C)(C)[C@@H]5CC[C@@]4(C)[C@]3(C)CC[C@@]2(NC(=O)CN(C)C)CC1=O` [19-53, 3β-O-(3′,3′-Dimethylsuccinyl)-17β-(2-dimethylamino-acetamido)-21-oxolup-18-ene]: the IC50 is under 0.199 µM.

As to `CC(C)C1=C2[C@H]3CC[C@@H]4[C@@]5(C)CC[C@H](OC(=O)CC(C)(C)C(=O)O)C(C)(C)[C@@H]5CC[C@@]4(C)[C@]3(C)CC[C@@]2(NC(=O)CN2CCN(C)CC2)CC1=O` [19-54, 3β-O-(3′,3′-Dimethylsuccinyl)-17β-(4-methylpiperazine-1-acetamido)-21-oxolup-18-ene], the IC50 is under 0.199 µM.

For the molecule `CC(C)C1=C2[C@H]3CC[C@@H]4[C@@]5(C)CC[C@H](OC(=O)CC(C)(C)C(=O)O)C(C)(C)[C@@H]5CC[C@@]4(C)[C@]3(C)CC[C@@]2(NC(=O)[C@H]2CCCN2C)CC1=O` [19-55], the IC50 is under 0.199 µM.

Consider `CC(C)C1=C2C3CCC4[C@@]5(C)CC[C@H](OC(=O)CC(C)(C)C(=O)O)C(C)(C)C5CC[C@@]4(C)[C@]3(C)CC[C@@]2(NC(=O)[C@@H]2CCCN2C(C)C)CC1=O` (stereo partly drawn) [19-56], for which the IC50 is under 0.199 µM.

With `CC(C)C1=C2C3CCC4[C@@]5(C)CC[C@H](OC(=O)CC(C)(C)C(=O)O)C(C)(C)C5CC[C@@]4(C)[C@]3(C)CC[C@@]2(NC(=O)[C@@H]2CCCN2C(=O)OC(C)(C)C)CC1=O` (stereo partly drawn) [19-57], the IC50 was under 0.199 µM.

Consider `CC(C)C1=C2C3CCC4[C@@]5(C)CC[C@H](OC(=O)CC(C)(C)C(=O)O)C(C)(C)C5CC[C@@]4(C)[C@]3(C)CC[C@@]2(NC(=O)[C@H]2CCCN2C(=O)OC(C)(C)C)CC1=O` (stereo partly drawn) [19-58], for which the IC50 was under 0.199 µM.

In the case of `CC(C)C1=C2C3CCC4[C@@]5(C)CC[C@H](OC(=O)CC(C)(C)C(=O)O)C(C)(C)C5CC[C@@]4(C)[C@]3(C)CC[C@@]2(NC(=O)Cn2ccnc2)CC1=O` (stereo partly drawn) [19-60, 3β-O-(3′,3′-Dimethylsuccinyl)-17β-(1-imidazole-acetamido)-21-oxolup-18-ene], the IC50 was under 0.199 µM.

Turning to `CC(C)C1=C2C3CCC4[C@@]5(C)CC[C@H](OC(=O)CC(C)(C)C(=O)O)C(C)(C)C5CC[C@@]4(C)[C@]3(C)CC[C@@]2(NC(=O)c2ccccc2C(=O)O)CC1=O` (stereo partly drawn) [19-61, 3β-O-(3′,3′-Dimethylsuccinyl)-17β-(2-carboxy-benzamido)-21-oxolup-18-ene], the IC50 was under 0.199 µM.

Turning to `CC(C)C1=C2C3CCC4[C@@]5(C)CC[C@H](OC(=O)CC(C)(C)C(=O)O)C(C)(C)C5CC[C@@]4(C)[C@]3(C)CC[C@@]2(NC(=O)c2nnc(C3CC3)o2)CC1=O` (stereo partly drawn) [19-62, 3β-O-(3′,3′-Dimethylsuccinyl)-17β-(5-cyclopropyl-[1,3,4]oxadiazole-2-amido)-21-oxolup-18-ene], the IC50 is under 0.199 µM.

In the case of `CC(C)C1=C2C3CCC4[C@@]5(C)CC[C@H](OC(=O)CC(C)(C)C(=O)O)C(C)(C)C5CC[C@@]4(C)[C@]3(C)CC[C@@]2(NC(=O)c2nnc(-c3ccccc3)o2)CC1=O` (stereo partly drawn) [19-63, 3β-O-(3′,3′-Dimethylsuccinyl)-17β-(5-phenyl-[1,3,4]oxadiazole-2-amido)-21-oxolup-18-ene], the IC50 was under 0.199 µM.
